Target: T1, Pol IV (DinB; HT-dinB) (Escherichia coli, UniProt Q47155)
T1 construct: full-length DinB with His tag (plasmid pET16B-DinB), expressed in E. coli BL21(DE3)/pLysS; tag kept
T1 sequence (Q47155 1-351): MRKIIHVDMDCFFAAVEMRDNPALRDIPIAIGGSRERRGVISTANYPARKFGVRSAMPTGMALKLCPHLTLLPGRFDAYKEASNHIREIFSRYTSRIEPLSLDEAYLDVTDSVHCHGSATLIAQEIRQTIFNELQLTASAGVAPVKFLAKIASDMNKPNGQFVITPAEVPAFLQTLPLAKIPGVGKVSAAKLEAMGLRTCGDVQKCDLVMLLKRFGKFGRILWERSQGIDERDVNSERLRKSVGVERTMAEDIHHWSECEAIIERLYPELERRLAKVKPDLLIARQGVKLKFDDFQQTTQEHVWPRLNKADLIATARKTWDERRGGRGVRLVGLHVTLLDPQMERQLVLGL
Assay: primer extension, […]-labelled primer, gel imaging
Assay type: biochemical
Conditions: insertion opposite 2-oxodA (primer 3/template 2, 50 fmol in 10 μl); Pol IV 50 nM; 20°C, 60 min; pH 7.4, 7.5 mM MgCl2; dNTP 0.02~500 μM; printed Km unit is implausible (a rate unit)

Row | Compound | Km [fmol/mL/min]
1 | Nc1ccn([C@H]2C[C@H](O)[C@@H](COP(=O)(O)OP(=O)(O)OP(=O)(O)O)O2)c(=O)n1 [dCTP] | 8.5
2 | Cc1cn([C@H]2C[C@H](O)[C@@H](COP(=O)(O)OP(=O)(O)OP(=O)(O)O)O2)c(=O)[nH]c1=O [dTTP] | 25.6
